Assay results: PubChem BioAssay (NCI)
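Test compounds were applied to cells in 96-well plates for 48 hours at 5 doses. Definition used: TGI = concentration required for complete inhibition of growth.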

Legend:
Experiment in all cases: inhibition of tumour cell growth, NCI panel, 48 h
[1] = test system: A498 renal
[2] = test system: HL-60(TB) leukemia
[3] = test system: LOX IMVI melanoma
[4] = test system: NCI-H226 lung
[5] = test system: SF-295 CNS
[6] = test system: SN12C renal
[7] = test system: SW-620 colon
[8] = test system: UO-31 renal
[9] = test system: M14 melanoma
[10] = test system: MDA-MB-231 breast

SMILES	TGI [1] [µM]	TGI [2] [µM]	TGI [3] [µM]	TGI [4] [µM]	TGI [5] [µM]	TGI [6] [µM]	TGI [7] [µM]	TGI [8] [µM]	TGI [9] [µM]	TGI [10] [µM]
CC(=O)NNc1nc(C)c(C(=O)NNC(=O)C(=O)Nc2cccc(C(C)=O)c2)s1	47.8	57.9	39.1	62	66.2	35.1	> 100	30.9	–	–
Cc1ccc(Sc2ccccc2[N+](=O)[O-])cc1	> 100	58.6	> 100	71.2	70.9	> 100	> 100	> 100	> 100	–
COc1ccc(C2OCCN2C)cc1 (stereo not given)	> 100	–	> 100	> 100	> 100	–	> 100	> 100	> 100	> 100
CCC(COC(=O)CC[C@@H](NC(=O)C(C)NC(=O)C(C)OC1C(O)C(CO)OC(OCc2ccccc2)C1NC(C)=O)C(N)=O)NC1c2ccccc2Nc2cccc([N+](=O)[O-])c21 (stereo not given in full)	–	> 100	> 100	> 100	> 100	> 100	> 100	> 100	> 100	–
CCOC(=O)c1c(C)nc2c(c1-c1cn(-c3ccccc3)nc1-c1ccccc1)C(=O)c1ccccc1-2	> 100	–	> 100	> 100	> 100	> 100	> 100	–	> 100	> 100
CCOC(=O)c1cc2c(OCc3ccccc3)c(OC)cc3c2c(n1)N(c1ccc(OC)cc1)C(C)C3 (stereo not given)	> 50	> 50	> 50	–	> 50	> 50	> 50	> 50	> 50	–
COC(=O)C(=O)C(C(=O)C(=O)Nc1cccc([N+](=O)[O-])c1)c1nc2ccc(Cl)cc2[nH]c1=O (stereo not given)	–	> 100	> 100	> 100	> 100	> 100	> 100	> 100	> 100	> 100
COc1ccc2c(c1)OCCc1cn[nH]c1-2	86.1	36	> 100	–	> 100	> 100	> 100	> 100	–	–
CN(C(=O)c1ccc2c(c1)sc1c(=O)n(C)c3ccccc3c12)c1ccccc1	–	> 100	> 100	> 100	> 100	> 100	> 100	> 100	> 100	> 100
CCOC(=O)C(NC(=O)CC)(Nc1ccc(S(=O)(=O)Nc2onc(C)c2C)cc1)C(F)(F)F (stereo not given)	–	> 100	> 100	> 100	> 100	> 100	> 100	> 100	> 100	> 100
O=C(Sc1c(-c2ccccc2)c(=O)n(-c2ccccc2)c(=S)n1-c1ccccc1)c1cccs1	–	> 100	61.2	> 100	> 100	> 100	> 100	> 100	> 100	–
Cc1nnc2n(c1=O)CCN2C	–	> 100	> 100	> 100	> 100	> 100	> 100	> 100	> 100	> 100
